# Test system: p53 phosphorylation
# Assay: Immunoprecipitation of [32P]-labelled p53 from A549 cells
# Assay type: cell-based, human
# Settings: six hours, 100 nM dexamethasone or 300 nM ISIS 15534
# Method: Immunoprecipitation of p53 protein. A549 cells were cultured in 60 mm dishes until the cell cultures were about 80% confluent, washed with PBS and placed for 1 hour in phosphate-free DMEM containing 5% fetal bovine serum. The cell cultures were then treated with 100 nM dexamethasone or 300 nM ISIS 15521 or ISIS 15534 as described previously (Zuo et al. 1998), three dishes per group, and [^32 P] phosphate (0.2 mCi/ml) was added to the media. Six hours after treatment, the cells were collected, washed with ice-cold PBS and stored at -80° C. prior to analysis. […]
# Referring to FIGS. 2A-2C, Northern blot analysis of 549 cells following treatment with dexamethasone and/or ISIS 15534 is shown. […] After 24 hours, 20 μg of total RNA was prepared and analyzed for serine/threonine protein phosphatase 5 (PP5), p21^Waf1/Cip1 (p21), and serum/glucocorticoid inducible kinase (sgk) mRNA levels. […] Six hours later, the protein extracts were prepared, and changes in p53 phosphorylation were determined by immunoprecipitation, SDS-PAGE analysis, and visualized by autoradiography (Control, p53 from control cells; ISIS 15534, p53 from cells treated with 500 nM ISIS 15534; Dex, p53 from cells treated with 100 nM dexamethasone).Referring to FIG. 2E, a Western analysis of an Immobilon membrane produced by the transfer of protein from the SDS-PAGE gel and detected with an anti-p53 mouse monoclonal antibody is shown.
smiles,measurement,value
"C[C@@H]1C[C@H]2[C@@H]3CCC4=CC(=O)C=C[C@]4(C)[C@@]3(F)[C@@H](O)C[C@]2(C)[C@@]1(O)C(=O)CO [dexamethasone, reference compound]",Phosphorylation of p53,hyperphosphorylation of p53

# Reference: patent US6235891A, “Glucocorticoid receptor agonist and decreased PP5” (South Alabama Medical Science Foundation, priority 1999, dated 2001)
